Target: T1, RC (reaction center) of the RC-dLH complex, L and M subunits (Gemmatimonas groenlandica, UniProt A0A6M4ILR2+A0A6M4IPC7)
T1 construct: gene HKW67_08800; native reaction center within the RC-dLH complex purified from Gem. groenlandica cells, DDM-solubilized; RC-U not detected; with Photosynthetic reaction center cytochrome c subunit; Photosynthetic reaction center H subunit, transmembrane part; Photosynthetic reaction center H subunit, cytoplasmic part; Reaction center subunit S
Experiment: cryo-EM structure ([…] Å)
Type: binding
Conditions: modeled ligand; placement in RC L/M from known biology

T1 sequence (A0A6M4IPC7 1-274): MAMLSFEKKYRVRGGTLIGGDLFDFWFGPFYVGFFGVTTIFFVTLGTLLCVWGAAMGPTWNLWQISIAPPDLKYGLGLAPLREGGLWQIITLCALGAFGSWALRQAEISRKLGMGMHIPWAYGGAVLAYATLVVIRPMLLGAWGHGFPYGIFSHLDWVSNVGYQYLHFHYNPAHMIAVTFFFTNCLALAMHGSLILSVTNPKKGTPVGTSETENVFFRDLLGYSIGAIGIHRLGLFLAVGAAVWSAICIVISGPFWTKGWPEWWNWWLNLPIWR
T1 sequence (A0A6M4ILR2 1-392): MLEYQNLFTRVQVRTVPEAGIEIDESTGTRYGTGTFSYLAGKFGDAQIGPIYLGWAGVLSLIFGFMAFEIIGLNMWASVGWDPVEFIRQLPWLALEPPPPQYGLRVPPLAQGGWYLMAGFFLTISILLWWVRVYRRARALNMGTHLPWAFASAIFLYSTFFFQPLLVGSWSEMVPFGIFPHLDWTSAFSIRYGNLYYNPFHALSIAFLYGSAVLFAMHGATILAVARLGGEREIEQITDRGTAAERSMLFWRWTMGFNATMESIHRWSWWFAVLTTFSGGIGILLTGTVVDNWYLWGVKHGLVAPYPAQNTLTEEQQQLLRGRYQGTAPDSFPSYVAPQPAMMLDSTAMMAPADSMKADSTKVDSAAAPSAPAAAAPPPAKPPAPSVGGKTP

## CC[C@H]1c2cc3[nH]c4c(c3C)C(=O)[C@H](C(=O)OC)c4c3nc(cc4[nH]c(cc(n2)[C@@H]1C)c(C(C)=O)c4C)[C@@H](C)[C@@H]3CCC(=O)OC/C=C(\C)CCC[C@H](C)CCC[C@H](C)CCCC(C)C [bacteriopheophytin]
  cryo-EM structure (2.3 Å): bacteriochlorophyll, bacteriopheophytin, gemmatoxanthin, dodecyl-maltoside, phosphoethanolamine, heme, water, cardiolipin, menaquinone, and spirilloxanthin

Source: PMC12817894, “Two solutions for efficient light-harvesting in phototrophic Gemmatimonadota” (mSystems, 2025)
